Patent US10583137B2, “Triazole DAGLα inhibitors” (THE SCRIPPS RESEARCH INSTITUTE, priority 2015, dated 2020)

Legend:
[1] = target: recombinant human DAGLα (Homo sapiens (Human), UniProt Q9Y4D2); assay: SAG substrate assay (in vitro inhibition of 2-AG biosynthesis), membrane lysates from HEK293T cells; format: biochemical; settings: any dose tested
Method: DAGL modulators were tested for in vitro inhibition of 2-AG biosynthesis using a 1-stearoyl-2-arachidonoyl-sn-glycerol (SAG) substrate assay in DAGL-transfected HEK293 cells.
The SAG substrate assay, as described in Journal of lipid research 56(4):927-935, was performed using the following assay conditions: 0.2 U/mL glycerol kinase (GK), glycerol-3-phosphate oxidase (GPO) and horseradish peroxidase (HRP), 0.125 mM ATP, 10 μM Amplifu™Red, 5% DMSO in a total volume of 200 μL. The assay additionally contained SAG, a DAGL modulator, and membrane lysates from HEK293T cells expressing recombinant human DAGLα or DAGLβ.
Membranes were prepared from HEK293T cells transiently transfected with DAGLα or DAGLβ plasmids encoding for full length DAGLα or DAGLβ, respectively (Angewandte Chemie 52(46):12081-12085; Journal of Medicinal Chemistry 57(15):6610-6622). Briefly, one day prior to transfection, 10^7 cells were seeded in a 15 cm petri dish. The seeded cells were transfected by the addition of a 3:1 mixture of polyethyleneimine (60 μg) and plasmid DNA (20 μg) in 2 mL serum free medium. The medium was refreshed after 24 hr, and after 72 hr the cells were harvested by suspending them in 20 mL medium. The suspension was centrifuged for 10 min at 1000 rpm, and the supernatant was removed. The cell pellet was stored at −80° C. until use. Cell pellets were thawed on ice and suspended in lysis buffer A (20 mM HEPES, 2 mM DTT, 0.25 M sucrose, 1 mM MgCl2, lx protease inhibitor cocktail (Roche cOmplete EDTA free), 25 U/μL Benzonase). The suspension was homogenized by polytrone (3×7 sec) and incubated for 30 min on ice. The suspension was subjected to ultracentrifugation (100,000×g, 30 min, 4° C., Beckman Coulter, Type Ti70 rotor) to yield the cytosolic fraction in the supernatant and the membrane fraction as a pellet. The pellet was resuspended in lysis buffer B (20 mM HEPES, 2 mM DTT, lx protease inhibitor cocktail (Roche cOmplete EDTA free)) and the protein concentration determined with Quick Start Bradford assay (Biorad). The protein fractions were diluted to a total protein concentration of 1 mg/mL and stored in small aliquots at −80° C. until use.

[2] = target: DAGLα (hDAGLα-FLAG) (Homo sapiens (Human), UniProt Q9Y4D2); assay: competitive ABPP, membrane proteome of transfected HEK293T cells; format: biochemical; settings: 0.8 μM (stated under the cell); read-out: DAGLα % inh. 0.8 μM
How it was run: (§1)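 HEK293T membrane proteome (1 mg/ml) expressing FLAG-tagged human DAGLα or DAGLβ, treated 30 min at room temperature with compound, then 30 min with HT-01 or FP-Rh probe (1 μM). Bands separated by SDS-PAGE were normalized to DMSO for IC50 by variable-slope fit.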

[3] = target: DAGLβ (hDAGLβ-FLAG) (Homo sapiens (Human), UniProt Q8NCG7); assay: as above; format: biochemical; settings: 0.8 μM (stated under the cell); read-out: DAGLβ % inh. 0.8 μM
How it was run: as §1

[4] = tested on: brain 2-AG and other DAGL-regulated lipids; assay: brain lipid profiles of treated mice by LC-MS; format: in vivo, mouse; settings: 50 mg/kg i.p., 4 hr post-dosing
Method: Brain lipid profiles of mice treated with compounds 14, 17 and control compound 22.
Mice were treated with 50 mg/kg compound (i.p.), followed by lipid profiling using LC-MS at a 4 hr post-dosing. […] This depletion of brain 2-AG in compound 14 and 17-treated mice was dose-dependent (data not shown) and was observed within 2 h after injection. […] The changes in each lipid species were dose-dependent and were absent in compound 22 treated mice (FIGS. 6C, E, G, I, and K).

[5] = tested on: DSE at parallel fiber to Purkinje cell synapses; assay: depolarization-induced suppression of excitation (DSE) in acute cerebellar slices; settings: 10 μM
From the text: Various forms of synaptic plasticity are regulated by 2-AG signaling, included depolarization-induced suppression of excitation (DSE) and inhibition (DSI). DSE was examined at parallel fiber (PF) to Purkinje cell (PC) synapses in acute cerebellar slices. A brief depolarization of PCs induced robust transient DSE at PF-PC synapses in vehicle treated cerebellar slices (FIG. 7A).

[6] = tested on: DSI at CA1 pyramidal neuron synapses; assay: depolarization-induced suppression of inhibition (DSI) in hippocampal slices; settings: 10 μM, bath application 30 min
Method: DSI was evaluated at CA1 pyramidal neuron synapses in hippocampal slices. DSI was induced in vehicle-treated hippocampal slices by applying a brief depolarization while evoking […] through stimulation of synaptic inhibitory inputs (FIG. 7C). Bath application of compound 14 (10 μM) and compound 17 (1 μM), but not compound 22 (10 μM), for 30 min before starting electrophysiological recordings blocked hippocampal DSI (FIGS. 7C and D).

[7] = tested on: LPS-induced neuroinflammatory responses (brain lipids, cytokines, body temperature); assay: LPS-induced neuroinflammatory responses in mouse brain; format: in vivo; settings: mice
Method: The effects of pharmacological and genetic inactivation of DAGL activity on neuroinflammatory responses (brain prostaglandin and cytokine production) induced by high-dose lipopolysaccharide treatment was examined.
Mice were treated with compounds 14, 17, control compound 22 or vehicle (50 mg/kg, i.p) for 60-90 min, followed by LPS (20 mg/kg, i.p., 6 hr) or vehicle. The mice were subsequently sacrificed and their brain lipid and cytokine profiles analyzed. […] The LPS-induced elevations in both 2-AG and PGE2 were suppressed in compound 14 and compound 17 treated mice and DAGLα/mice, but not compound 22 treated mice. […] LPS-induced anapyrexia was blunted in compound 14 and 17 treated mice (FIG. 8E) and DAGLα−/− mice (FIG. 8F), but not compound 22 treated mice (FIG. 8E).

[8] = 50 mg/kg i.p. 60-90 min before LPS 20 mg/kg i.p., 6 hr

Chain of recombinant human DAGLα (Q9Y4D2 whole entry): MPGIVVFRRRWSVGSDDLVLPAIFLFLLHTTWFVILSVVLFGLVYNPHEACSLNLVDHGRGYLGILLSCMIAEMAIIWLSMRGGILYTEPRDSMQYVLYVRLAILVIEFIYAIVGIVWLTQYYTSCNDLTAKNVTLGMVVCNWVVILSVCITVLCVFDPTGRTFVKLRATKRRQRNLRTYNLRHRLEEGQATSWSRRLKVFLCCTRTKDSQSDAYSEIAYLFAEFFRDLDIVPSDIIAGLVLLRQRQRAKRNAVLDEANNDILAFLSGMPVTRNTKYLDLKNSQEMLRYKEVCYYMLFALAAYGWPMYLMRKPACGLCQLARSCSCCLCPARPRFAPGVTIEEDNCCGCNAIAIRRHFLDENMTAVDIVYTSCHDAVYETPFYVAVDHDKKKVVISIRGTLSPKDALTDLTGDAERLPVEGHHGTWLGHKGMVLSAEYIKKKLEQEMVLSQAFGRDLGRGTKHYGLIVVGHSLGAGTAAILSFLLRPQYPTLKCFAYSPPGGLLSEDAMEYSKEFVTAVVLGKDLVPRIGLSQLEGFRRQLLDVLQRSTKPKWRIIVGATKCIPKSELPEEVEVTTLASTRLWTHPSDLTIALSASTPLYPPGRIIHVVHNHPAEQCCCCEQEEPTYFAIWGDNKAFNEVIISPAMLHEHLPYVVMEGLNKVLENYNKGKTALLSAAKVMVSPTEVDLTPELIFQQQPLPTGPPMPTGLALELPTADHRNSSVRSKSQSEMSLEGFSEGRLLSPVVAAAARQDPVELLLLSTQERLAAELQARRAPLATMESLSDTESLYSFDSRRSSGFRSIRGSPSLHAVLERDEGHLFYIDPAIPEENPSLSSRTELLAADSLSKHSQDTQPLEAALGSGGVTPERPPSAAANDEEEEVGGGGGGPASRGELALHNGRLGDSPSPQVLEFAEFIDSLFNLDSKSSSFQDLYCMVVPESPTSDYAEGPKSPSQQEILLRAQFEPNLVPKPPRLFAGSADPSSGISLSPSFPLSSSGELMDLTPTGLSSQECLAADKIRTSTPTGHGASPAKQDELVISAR
Chain of DAGLα (hDAGLα-FLAG) (Q9Y4D2 whole entry): as above
Chain of DAGLβ (hDAGLβ-FLAG) (Q8NCG7 whole entry): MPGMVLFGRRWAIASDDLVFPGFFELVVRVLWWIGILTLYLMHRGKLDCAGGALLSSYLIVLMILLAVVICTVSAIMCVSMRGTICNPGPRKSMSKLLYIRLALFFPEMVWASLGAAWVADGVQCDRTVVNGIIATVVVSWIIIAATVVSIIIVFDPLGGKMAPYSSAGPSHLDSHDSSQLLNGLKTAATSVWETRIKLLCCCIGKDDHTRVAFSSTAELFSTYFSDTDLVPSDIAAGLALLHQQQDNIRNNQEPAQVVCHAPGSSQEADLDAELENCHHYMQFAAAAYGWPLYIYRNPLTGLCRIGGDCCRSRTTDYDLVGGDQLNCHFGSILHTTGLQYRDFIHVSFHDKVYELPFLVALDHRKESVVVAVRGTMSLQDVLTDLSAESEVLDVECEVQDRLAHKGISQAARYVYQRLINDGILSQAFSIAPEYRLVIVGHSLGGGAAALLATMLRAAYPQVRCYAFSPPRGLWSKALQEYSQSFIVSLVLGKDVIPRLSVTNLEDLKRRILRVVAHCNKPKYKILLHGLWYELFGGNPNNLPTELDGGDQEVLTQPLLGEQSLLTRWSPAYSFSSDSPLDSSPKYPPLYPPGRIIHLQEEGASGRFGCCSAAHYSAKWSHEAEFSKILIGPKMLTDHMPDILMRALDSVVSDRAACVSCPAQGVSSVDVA

`CC(C)(C)OC(=O)N1CCN(C(=O)n2cc(-c3ccc(OC(F)(F)F)cc3)nn2)C(c2ccccc2)C1` (centres unmarked) [Compound 22, tert-butyl 3-phenyl-4-(4-(4-(trifluoromethoxy)phenyl)-1H-1,2,3-triazole-1-carbonyl)piperazine-1-carboxylate] was tested, and the “inhibition of DAGLα” value [1] was “did not substantially inhibit”, the inhibition at 0.8 µM [2] was 0 to 25% and the inhibition at 0.8 µM [3] was 0 to 25%. For the same molecule, the “brain 2-AG levels” value [4] was “not”, the “brain AA” value [4] was “absent” and the “brain AEA” value [4] was “absent”. For the same molecule, the “brain C18:1/C20:4 DAG” value [4] was “absent”, the “brain PGD2” value [4] was “absent” and the “brain PGE2” value [4] was “absent”. For the same molecule, the “brain SAG” value [4] was “absent”, the “effect on cerebellar DSE” value [5] was “did not alter” and the “effect on hippocampal DSI” value [6] was “not”. The “LPS-induced elevation in brain 2-AG” value [7, 8] was “not”, the “LPS-induced elevation in brain PGE2” value [7, 8] was “not” and the LPS-induced anapyrexia ([7]; 50 mg/kg i.p. before LPS) was “not”. For the same molecule, the “brain AA under basal control conditions” value ([7]; 50 mg/kg i.p., no LPS) was “not” and the “brain PGE2 under basal control conditions” value ([7]; 50 mg/kg i.p., no LPS) was “not”.
